Data taken from paper PMC10743905, “Design, Synthesis, and In Vitro and In Vivo Bioactivity Studies of Hydrazide–Hydrazones of 2,4-Dihydroxybenzoic Acid” (International Journal of Molecular Sciences, 2023).
Values after ≈ are worked out from the molar mass of the structure shown.

system: Bacillus subtilis ATCC 6633; experiment: Broth microdilution MIC/MBC; assay type: cell-based; details: ATCC6633, read-out: MIC
Excerpt: Detailed procedures are presented in the Supplementary Materials. […]
(§1) In vitro antimicrobial activity assays - Methodology
(§2) The examined compounds 1 - 24 were screened in vitro for antibacterial and antifungal activities using the broth microdilution method according to procedure reported earlier by our research group and European Committee on Antimicrobial Susceptibility Testing (EUCAST) and Clinical and Laboratory Standards Institute (CLSI) guidelines against a panel of reference and clinical or saprophytic strains of microorganisms, in-cluding Gram-positive bacteria, Staphylococcus aureus ATCC 43300 (Methicillin Resistant S. aureus – MRSA), Staphylococcus aureus ATCC 29213 (Methicillin Susceptible S. aureus – MSSA), Staphylococcus epidermidis ATCC 12228, Enterococcus faecalis ATCC 29212, Micro-coccus luteus ATCC 10240, Bacillus subtilis ATCC 6633 and Bacillus cereus ATCC 10876), Gram-negative bacteria (Bordetella bronchiseptica ATCC 4617, Escherichia coli ATCC 25922, Klebsiella pneumoniae ATCC 13883, Proteus mirabilis ATCC 12453, Salmonella typhimurium ATCC 14028 and Pseudomonas aeruginosa ATCC 9027) and fungi belonging to yeasts (Can-dida albicans ATCC 10231, Candida albicans ATCC 2091, Candida parapsilosis ATCC 22019, Candida glabrata ATCC 90030 and Candida krusei ATCC 14243). The microorganisms be-longing to ATCC came from American Type Culture Collection, routinely used for the evaluation of antimicrobials. All the used microbial cultures were first subcultured on nu-trient agar or Sabouraud agar at 35°C for 18-24 h or 30°C for 24-48 h for bacteria and fungi, […]
(§3) The surface of Mueller-Hinton agar (for bacteria) and RPMI 1640 with MOPS (for fungi) were inoculated with the suspensions of bacterial or fungal species. Microbial suspensions were prepared in sterile saline with an optical density of McFarland standard scale 0.5.
(§4) Samples containing examined compounds were dissolved in dimethyl sulfoxide (DMSO).
(§5) Furthermore, bacterial and fungal suspensions were put onto Petri dishes with solid me-dia containing 2 mg/mL of the tested compounds followed incubation at 37°C for 24h and 30°C for 48h for bacteria and fungi, respectively. The inhibition of microbial growth was judged by comparison with a control culture prepared without any sample tested. Ciprof-loxacin, vancomycin, nitrofurantoin, cefuroxime, ampicillin or nystatin (Sigma) were used as a reference antibacterial or antifungal compounds, respectively.
(§6) Subsequently, the MIC (Minimal Inhibitory Concentration) of the compounds was ex-amined by the microdilution broth method, using their two-fold dilutions in Mueller- […]
(§7) Hinton broth or (for bacteria) and RPMI 1640 broth with MOPS (for fungi) prepared in 96-well polystyrene plates. Final concentrations of the compounds ranged from 1000 to 0.488 µg/ml. Microbial suspensions were prepared in 0.85% NaCl with an optical density of 0.5 McFarland standard. Next each bacterial or fungal suspension was added per each well containing broth and various concentrations of the examined compounds. After incuba-

MIC [µg/mL]	Structure (SMILES)
> 1000	Cc1ccc(/C=N/NC(=O)c2ccc(O)cc2O)cc1 [Compound 3, 2,4-dihydroxy-N-[(4-methylphenyl)methylidene]benzohydrazide]

system: Escherichia coli ATCC 25922; experiment: Broth microdilution MIC/MBC; assay type: cell-based; details: ATCC25922
Excerpt: as §1, §2, §3, §4, §5, §6, §7

MIC [µg/mL]	Structure (SMILES)
> 1000	Cc1ccc(/C=N/NC(=O)c2ccc(O)cc2O)cc1 [Compound 3, 2,4-dihydroxy-N-[(4-methylphenyl)methylidene]benzohydrazide]

system: Enterococcus faecalis ATCC 29212; experiment: Broth microdilution MIC/MBC; assay type: cell-based; details: ATCC29212, read-out: MIC
Excerpt: as §1, §2, §3, §4, §5, §6, §7

MIC [µg/mL]	Structure (SMILES)
> 1000	Cc1ccc(/C=N/NC(=O)c2ccc(O)cc2O)cc1 [Compound 3, 2,4-dihydroxy-N-[(4-methylphenyl)methylidene]benzohydrazide]

system: Bacillus cereus ATCC 10876; experiment: Broth microdilution MIC/MBC; assay type: cell-based; details: ATCC10876, read-out: MIC
Excerpt: as §1, §2, §3, §4, §5, §6, §7

MIC [µg/mL]	Structure (SMILES)
> 1000	Cc1ccc(/C=N/NC(=O)c2ccc(O)cc2O)cc1 [Compound 3, 2,4-dihydroxy-N-[(4-methylphenyl)methylidene]benzohydrazide]

system: Bordetella bronchiseptica ATCC 4617; experiment: Broth microdilution MIC/MBC; assay type: cell-based; details: ATCC4617
Excerpt: as §1, §2, §3, §4, §5, §6, §7

MIC [µg/mL]	Structure (SMILES)
> 1000	Cc1ccc(/C=N/NC(=O)c2ccc(O)cc2O)cc1 [Compound 3, 2,4-dihydroxy-N-[(4-methylphenyl)methylidene]benzohydrazide]

system: Klebsiella pneumoniae ATCC 13883; experiment: Broth microdilution MIC/MBC; assay type: cell-based; details: ATCC13883
Excerpt: as §1, §2, §3, §4, §5, §6, §7

MIC [µg/mL]	Structure (SMILES)
> 1000	Cc1ccc(/C=N/NC(=O)c2ccc(O)cc2O)cc1 [Compound 3, 2,4-dihydroxy-N-[(4-methylphenyl)methylidene]benzohydrazide]

system: Candida albicans ATCC 2091; experiment: Broth microdilution MIC/MFC; assay type: cell-based; details: ATCC2091, read-out: MIC
Excerpt: as §1, §2, §3, §4, §5, §6, §7

MIC [µg/mL]	Structure (SMILES)
> 1000	Cc1ccc(/C=N/NC(=O)c2ccc(O)cc2O)cc1 [Compound 3, 2,4-dihydroxy-N-[(4-methylphenyl)methylidene]benzohydrazide]

system: Candida parapsilosis ATCC 22019; experiment: Broth microdilution MIC/MFC; assay type: cell-based; details: Lodderomyces parapsilosis, ATCC22019, read-out: MIC
Excerpt: as §1, §2, §3, §4, §5, §6, §7

MIC [µg/mL]	Structure (SMILES)
> 1000	Cc1ccc(/C=N/NC(=O)c2ccc(O)cc2O)cc1 [Compound 3, 2,4-dihydroxy-N-[(4-methylphenyl)methylidene]benzohydrazide]

system: Candida krusei ATCC 14243; experiment: Broth microdilution MIC/MFC; assay type: cell-based; details: Pichia kudriavzevii, ATCC14243, read-out: MIC
Excerpt: as §1, §2, §3, §4, §5, §6, §7

MIC [µg/mL]	Structure (SMILES)
> 1000	Cc1ccc(/C=N/NC(=O)c2ccc(O)cc2O)cc1 [Compound 3, 2,4-dihydroxy-N-[(4-methylphenyl)methylidene]benzohydrazide]

system: Candida glabrata ATCC 90030; experiment: Broth microdilution MIC/MFC; assay type: cell-based; details: Nakaseomyces glabratus, ATCC90030, read-out: MIC
Excerpt: as §1, §2, §3, §4, §5, §6, §7

MIC [µg/mL]	Structure (SMILES)
> 1000	Cc1ccc(/C=N/NC(=O)c2ccc(O)cc2O)cc1 [Compound 3, 2,4-dihydroxy-N-[(4-methylphenyl)methylidene]benzohydrazide]

system: Candida albicans ATCC 10231; experiment: Broth microdilution MIC/MFC; assay type: cell-based; details: ATCC10231, read-out: MIC
Excerpt: as §1, §2, §3, §4, §5, §6, §7

MIC [µg/mL]	Structure (SMILES)
> 1000	Cc1ccc(/C=N/NC(=O)c2ccc(O)cc2O)cc1 [Compound 3, 2,4-dihydroxy-N-[(4-methylphenyl)methylidene]benzohydrazide]

system: not given; experiment: not given; details: not given

melting point [°C]	Structure (SMILES)
248	Cc1ccc(/C=N/NC(=O)c2ccc(O)cc2O)cc1 [Compound 3, 2,4-dihydroxy-N-[(4-methylphenyl)methylidene]benzohydrazide]

system: Staphylococcus aureus ATCC 29213; experiment: Broth microdilution MIC/MBC; assay type: cell-based; details: ATCC29213
Excerpt: as §1
as §2, with “antimicrobials.” for “antimicrobials. All the used microbial cultures were first subcultured on nu-trient agar or Sabouraud agar at 35°C for 18-24 h or 30°C for 24-48 h for bacteria and fungi,”
(§8) Samples containing examined compounds were dissolved in dimethyl sulfoxide (DMSO). […]
as §6, §7

MIC [µg/mL]	Structure (SMILES)
> 1000	Cc1ccc(/C=N/NC(=O)c2ccc(O)cc2O)cc1 [Compound 3, 2,4-dihydroxy-N-[(4-methylphenyl)methylidene]benzohydrazide]

system: Micrococcus luteus ATCC 10240; experiment: Broth microdilution MIC/MBC; assay type: cell-based; details: not given
Excerpt: as §1
as §2, with “antimicrobials.” for “antimicrobials. All the used microbial cultures were first subcultured on nu-trient agar or Sabouraud agar at 35°C for 18-24 h or 30°C for 24-48 h for bacteria and fungi,”
as §8, §6, §7

MBC/MIC	Structure (SMILES)
> 2	Cc1ccc(/C=N/NC(=O)c2ccc(O)cc2O)cc1 [Compound 3, 2,4-dihydroxy-N-[(4-methylphenyl)methylidene]benzohydrazide]

same assay, conditions: ATCC10240

Structure (SMILES)	MBC [µg/mL]
Cc1ccc(/C=N/NC(=O)c2ccc(O)cc2O)cc1 [Compound 3, 2,4-dihydroxy-N-[(4-methylphenyl)methylidene]benzohydrazide]	> 1000

same assay, conditions: ATCC10240, read-out: MIC

MIC [µg/mL]	Structure (SMILES)
500 (≈ 1.85 mM)	Cc1ccc(/C=N/NC(=O)c2ccc(O)cc2O)cc1 [Compound 3, 2,4-dihydroxy-N-[(4-methylphenyl)methylidene]benzohydrazide]

system: Staphylococcus epidermidis ATCC 12228; experiment: Broth microdilution MIC/MBC; assay type: cell-based; details: ATCC12228, read-out: MIC
Excerpt: as §1
as §2, with “antimicrobials.” for “antimicrobials. All the used microbial cultures were first subcultured on nu-trient agar or Sabouraud agar at 35°C for 18-24 h or 30°C for 24-48 h for bacteria and fungi,”
as §8, §6, §7

MIC [µg/mL]	Structure (SMILES)
> 1000	Cc1ccc(/C=N/NC(=O)c2ccc(O)cc2O)cc1 [Compound 3, 2,4-dihydroxy-N-[(4-methylphenyl)methylidene]benzohydrazide]

system: Proteus mirabilis ATCC 12453; experiment: Broth microdilution MIC/MBC; assay type: cell-based; details: ATCC12453
Excerpt: as §1
as §2, with “antimicrobials.” for “antimicrobials. All the used microbial cultures were first subcultured on nu-trient agar or Sabouraud agar at 35°C for 18-24 h or 30°C for 24-48 h for bacteria and fungi,”
as §8, §6, §7

MIC [µg/mL]	Structure (SMILES)
> 1000	Cc1ccc(/C=N/NC(=O)c2ccc(O)cc2O)cc1 [Compound 3, 2,4-dihydroxy-N-[(4-methylphenyl)methylidene]benzohydrazide]

system: Staphylococcus aureus ATCC 43300; experiment: Broth microdilution MIC/MBC; assay type: cell-based; details: Staphylococcus aureus ATCC 43300 (MRSA)
Excerpt: as §1
as §2, with “antimicrobials.” for “antimicrobials. All the used microbial cultures were first subcultured on nu-trient agar or Sabouraud agar at 35°C for 18-24 h or 30°C for 24-48 h for bacteria and fungi,”
as §8, §6, §7

MIC [µg/mL]	Structure (SMILES)
> 1000	Cc1ccc(/C=N/NC(=O)c2ccc(O)cc2O)cc1 [Compound 3, 2,4-dihydroxy-N-[(4-methylphenyl)methylidene]benzohydrazide]

system: Salmonella typhimurium ATCC 14028; experiment: Broth microdilution MIC/MBC; assay type: cell-based; details: Salmonella enterica
Excerpt: as §1
as §2, with “antimicrobials.” for “antimicrobials. All the used microbial cultures were first subcultured on nu-trient agar or Sabouraud agar at 35°C for 18-24 h or 30°C for 24-48 h for bacteria and fungi,”
as §8, §6, §7

MIC [µg/mL]	Structure (SMILES)
> 1000	Cc1ccc(/C=N/NC(=O)c2ccc(O)cc2O)cc1 [Compound 3, 2,4-dihydroxy-N-[(4-methylphenyl)methylidene]benzohydrazide]

system: Pseudomonas aeruginosa ATCC 9027; experiment: Broth microdilution MIC/MBC; assay type: cell-based; details: ATCC9027
Excerpt: as §1
as §2, with “antimicrobials.” for “antimicrobials. All the used microbial cultures were first subcultured on nu-trient agar or Sabouraud agar at 35°C for 18-24 h or 30°C for 24-48 h for bacteria and fungi,”
as §8, §6, §7

MIC [µg/mL]	Structure (SMILES)
> 1000	Cc1ccc(/C=N/NC(=O)c2ccc(O)cc2O)cc1 [Compound 3, 2,4-dihydroxy-N-[(4-methylphenyl)methylidene]benzohydrazide]
